These results are taken from patent US20250320252A1 (The Scripps Research Institute, priority 2021, published 2025).

The format of data set [1] is in vitro ADME, cynomolgus monkey. The procedure:
(§1) To investigate the stability of the conjugates in mouse, cyno monkey, dog, and human plasma, conjugate mCMD307 was incubated in plasma for 24 h (Table 13). At certain time intervals a sample of plasma was taken and plasma proteins precipitated. Samples were analyzed using LC-MS.

The nature of data set [2]: Plasma stability, 24 h, LC-MS, mouse plasma. Type of data set: in vitro ADME. The procedure:
as §1

Data set [3] can be described thus: in vitro. The settings on record: dog, human, plasma. Type of data set: in vitro ADME. The procedure: as §1

Like-named read-outs stand apart in the source and are kept apart here.

What is called share remaining is the share of the starting amount still present when the sample was taken. A higher share remaining goes with greater stability. Regarding `CC[C@H](C)[C@H](NC(=O)[C@H](CO)NC(=O)[C@H](Cc1ccc(O)cc1)NC(=O)[C@H](CC(=O)O)NC(=O)[C@H](CO)NC(=O)[C@@H](NC(=O)[C@H](Cc1ccccc1)NC(=O)[C@@H](NC(=O)CNC(=O)[C@H](CCC(=O)O)NC(=O)C(C)(C)NC(=O)[C@@H](N)Cc1ccc(O)cc1)[C@@H](C)O)[C@@H](C)O)C(=O)N[C@@H](Cc1ccc(O)cc1)C(=O)N[C@H]1CCCCNC(=O)CN(C(=O)CCNC(=O)CCOCCOCCOCCNC(=O)CCCCCCCCCCCCCCCCC(=O)O)CC(=O)NCCCC[C@@H](C(=O)N[C@@H](Cc2ccccc2)C(=O)N[C@H](C(=O)N[C@@H](CC(N)=O)C(=O)N[C@@H](Cc2c[nH]c3ccccc23)C(=O)N[C@@H](CC(C)C)C(=O)N[C@@H](CC(C)C)C(=O)N[C@@H](C)C(=O)NCC(=O)NCC(=O)N2CCC[C@H]2C(=O)N[C@@H](CO)C(=O)N[C@@H](CO)C(=O)NCC(=O)N[C@@H](C)C(=O)N2CCC[C@H]2C(=O)N2CCC[C@H]2C(=O)N2CCC[C@H]2C(=O)N[C@@H](CO)C(N)=O)C(C)C)NC(=O)C(C)(C)NC(=O)[C@H](C)NC(=O)[C@H](C)NC(=O)[C@H](CCC(N)=O)NC(=O)[C@H](CCCCN)NC(=O)[C@H](CC(=O)O)NC1=O` [mCMD307, YAibEGT-FTSDY-SIYXD-KQAAAib-XFVNW-LLAGG-PSSGA-PPPS-NH2 (where each X is K)], the “Area under the peak (%)” value amounted to 87% in data set [1] and 53% in data set [2]. For the same compound, the amount remaining at 24 h in data set [3] amounted to 92%.
